Assay results: publication PMC10746543, “Design principles for cyclin K molecular glue degraders” (Nature Chemical Biology, 2023)
Where “and” joins values, the source holds several entries; their conditions need not be identical. Equal values may be shown once. Read-outs that look alike come from different tables or passages of the source.

Key:
CDK2–cyclin A = molecular target: T1, CDK2–cyclin A (Homo sapiens, UniProt P24941); assay: Lanthascreen kinase binding assay, CDK2; conditions: for Lanthascreen signal, sheet CDK2: raw replicates, experiment r36-r46
T1 construct: purchased Thermo Fisher
Method: Lanthascreen experiments were performed using commercially available reagents (Thermo Fisher) and according to the manufacturer’s instructions.

CDK12 = molecular target: T2, CDK12 (Homo sapiens, UniProt Q16531+Q9NYV4); assay: Label-free quantitative mass spectrometry in MDA-MB-231 cells, CDK12; assay type: cell-based
T2 construct: endogenous in cells; host or cells: MDA-MB-231
T2 sequence (Q9NYV4 whole entry): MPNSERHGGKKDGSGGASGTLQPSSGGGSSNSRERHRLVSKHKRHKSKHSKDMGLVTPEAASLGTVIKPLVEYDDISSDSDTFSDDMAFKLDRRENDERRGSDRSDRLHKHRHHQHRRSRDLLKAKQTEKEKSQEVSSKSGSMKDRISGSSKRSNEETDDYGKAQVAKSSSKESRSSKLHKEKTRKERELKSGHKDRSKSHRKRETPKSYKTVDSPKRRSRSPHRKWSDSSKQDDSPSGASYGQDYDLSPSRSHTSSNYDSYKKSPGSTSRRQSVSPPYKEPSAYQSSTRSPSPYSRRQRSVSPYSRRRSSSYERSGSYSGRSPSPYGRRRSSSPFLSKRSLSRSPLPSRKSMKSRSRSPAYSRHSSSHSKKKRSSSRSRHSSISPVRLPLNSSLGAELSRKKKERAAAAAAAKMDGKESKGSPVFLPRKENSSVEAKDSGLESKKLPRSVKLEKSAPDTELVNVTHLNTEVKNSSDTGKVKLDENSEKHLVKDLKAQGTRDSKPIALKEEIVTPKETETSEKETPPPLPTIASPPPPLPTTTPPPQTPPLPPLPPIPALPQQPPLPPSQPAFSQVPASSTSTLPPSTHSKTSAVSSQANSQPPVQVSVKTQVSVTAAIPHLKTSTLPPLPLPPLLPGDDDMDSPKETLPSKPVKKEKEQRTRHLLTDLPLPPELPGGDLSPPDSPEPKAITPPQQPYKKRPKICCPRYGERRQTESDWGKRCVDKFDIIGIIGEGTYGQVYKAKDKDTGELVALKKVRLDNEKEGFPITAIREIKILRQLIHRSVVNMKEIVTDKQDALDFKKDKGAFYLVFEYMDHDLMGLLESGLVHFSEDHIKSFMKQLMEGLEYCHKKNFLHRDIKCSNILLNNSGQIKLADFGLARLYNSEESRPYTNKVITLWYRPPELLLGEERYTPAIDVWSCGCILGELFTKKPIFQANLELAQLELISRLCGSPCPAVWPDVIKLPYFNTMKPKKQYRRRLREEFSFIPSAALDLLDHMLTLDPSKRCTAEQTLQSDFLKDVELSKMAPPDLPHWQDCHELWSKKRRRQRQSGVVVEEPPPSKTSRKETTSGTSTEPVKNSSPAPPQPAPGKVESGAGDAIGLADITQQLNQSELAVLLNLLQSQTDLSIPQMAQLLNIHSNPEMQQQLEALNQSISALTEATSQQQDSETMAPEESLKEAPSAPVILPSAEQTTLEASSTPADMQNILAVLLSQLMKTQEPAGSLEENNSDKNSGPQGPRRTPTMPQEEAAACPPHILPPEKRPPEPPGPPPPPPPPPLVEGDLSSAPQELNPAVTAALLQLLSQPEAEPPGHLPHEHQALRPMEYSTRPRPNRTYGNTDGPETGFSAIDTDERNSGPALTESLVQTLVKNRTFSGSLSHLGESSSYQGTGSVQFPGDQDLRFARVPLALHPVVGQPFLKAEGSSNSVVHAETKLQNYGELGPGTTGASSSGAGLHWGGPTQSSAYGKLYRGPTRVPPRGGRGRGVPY
T2 sequence (O75909 whole entry partner): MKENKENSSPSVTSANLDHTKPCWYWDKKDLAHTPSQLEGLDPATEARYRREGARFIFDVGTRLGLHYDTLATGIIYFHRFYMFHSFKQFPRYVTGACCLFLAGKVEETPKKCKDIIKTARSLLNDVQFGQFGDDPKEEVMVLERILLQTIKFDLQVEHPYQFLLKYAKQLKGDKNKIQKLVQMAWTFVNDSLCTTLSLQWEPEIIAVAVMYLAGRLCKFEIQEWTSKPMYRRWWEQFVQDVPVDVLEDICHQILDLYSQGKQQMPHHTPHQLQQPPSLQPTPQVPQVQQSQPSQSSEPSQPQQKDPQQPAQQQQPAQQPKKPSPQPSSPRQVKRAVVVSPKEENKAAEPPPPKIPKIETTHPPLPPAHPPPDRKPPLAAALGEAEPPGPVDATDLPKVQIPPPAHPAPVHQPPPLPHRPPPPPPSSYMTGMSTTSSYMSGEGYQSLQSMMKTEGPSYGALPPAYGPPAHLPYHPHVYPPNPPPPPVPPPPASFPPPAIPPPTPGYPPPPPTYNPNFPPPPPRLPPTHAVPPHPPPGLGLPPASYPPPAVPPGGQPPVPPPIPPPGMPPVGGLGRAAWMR
T2 sequence (Q16531 2-1140 limits assumed): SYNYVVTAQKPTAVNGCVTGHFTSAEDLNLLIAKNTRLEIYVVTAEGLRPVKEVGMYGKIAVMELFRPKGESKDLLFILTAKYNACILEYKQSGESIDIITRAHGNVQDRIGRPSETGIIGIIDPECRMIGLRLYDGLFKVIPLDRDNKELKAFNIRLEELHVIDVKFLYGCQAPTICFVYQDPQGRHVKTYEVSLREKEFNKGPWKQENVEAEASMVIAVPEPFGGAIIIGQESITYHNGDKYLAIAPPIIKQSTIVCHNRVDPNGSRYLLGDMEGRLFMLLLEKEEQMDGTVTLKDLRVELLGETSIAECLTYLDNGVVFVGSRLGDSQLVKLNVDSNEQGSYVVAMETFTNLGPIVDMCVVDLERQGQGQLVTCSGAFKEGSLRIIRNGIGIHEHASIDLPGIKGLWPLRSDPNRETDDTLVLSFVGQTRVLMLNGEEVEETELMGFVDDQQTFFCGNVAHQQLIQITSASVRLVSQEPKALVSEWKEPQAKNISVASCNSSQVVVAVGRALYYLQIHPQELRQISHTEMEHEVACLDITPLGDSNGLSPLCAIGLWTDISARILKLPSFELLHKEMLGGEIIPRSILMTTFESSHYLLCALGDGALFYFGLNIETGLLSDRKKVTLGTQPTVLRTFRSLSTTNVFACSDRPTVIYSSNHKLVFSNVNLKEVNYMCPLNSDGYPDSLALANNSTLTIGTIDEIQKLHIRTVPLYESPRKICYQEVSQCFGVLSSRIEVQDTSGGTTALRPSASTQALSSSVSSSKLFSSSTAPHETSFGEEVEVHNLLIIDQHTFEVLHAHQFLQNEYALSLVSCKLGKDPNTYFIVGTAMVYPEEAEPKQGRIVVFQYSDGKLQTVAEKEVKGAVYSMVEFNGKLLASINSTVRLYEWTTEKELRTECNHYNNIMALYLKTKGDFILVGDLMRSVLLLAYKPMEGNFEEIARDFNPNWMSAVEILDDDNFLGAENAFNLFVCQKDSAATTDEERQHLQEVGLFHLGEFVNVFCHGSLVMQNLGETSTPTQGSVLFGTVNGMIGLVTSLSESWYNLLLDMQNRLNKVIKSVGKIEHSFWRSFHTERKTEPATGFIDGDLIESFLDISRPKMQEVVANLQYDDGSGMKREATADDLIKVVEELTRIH
Method: (§1) MDA-MB-231 cells were treated with DMSO or a cyclin K degrader compound at 1 µM for 5 h. Cells were collected by centrifugation and washed with phosphate-buffered saline before snap freezing in liquid nitrogen. Cells were lysed by addition of lysis buffer (8 M urea, 50 mM NaCl, 50 mM 4-(2-hydroxyethyl)-1-piperazineethanesulfonic acid (EPPS) pH 8.5, and protease and phosphatase inhibitors) and homogenization by bead beating (BioSpec) for three repeats of 30 s at 2,400 rpm. Bradford assay was used to determine the final protein concentration in the clarified cell lysate. Then 50 µg of protein for each sample was reduced, alkylated and precipitated using methanol/chloroform as previously described, and the resulting washed precipitated protein was allowed to air dry. Precipitated protein was resuspended in 4 M urea, 50 mM HEPES pH 7.4, followed by dilution to 1 M urea with the addition of 200 mM EPPS, pH 8. Proteins were first digested with LysC (1:50; enzyme:protein) for 12 h at room temperature. The LysC digestion was diluted to 0.5 M urea with 200 mM EPPS pH 8 followed by digestion with trypsin (1:50; enzyme:protein) for 6 h at 37 °C. Sample digests were acidified with formic acid to a pH of 2–3 before desalting using C18 solid phase extraction plates (SOLA, Thermo Fisher Scientific). Desalted peptides were dried in a vacuum-centrifuged and reconstituted in 0.1% formic acid for liquid chromatography–mass spectrometry analysis.
(§2) Data were collected using a TimsTOF Pro2 (Bruker Daltonics) coupled to a nanoElute LC pump (Bruker Daltonics) via a CaptiveSpray nano-electrospray source. Peptides were separated on a reversed-phase C18 column (25 cm × 75 µm inner diameter, […], IonOpticks) containing an integrated captive spray emitter. Peptides were separated using a 50 min gradient of 2–30% buffer B (acetonitrile in 0.1% formic acid) with a flow rate of 250 nl min^−1 and column temperature maintained at 50 °C.
(§3) Data-dependent acquisition (DDA) was performed in Parallel Accumulation-Serial Fragmentation (PASEF) mode to determine effective ion mobility windows for downstream diaPASEF data collection. The ddaPASEF parameters included: 100% duty cycle using accumulation and ramp times of 50 ms each, one Trapped Ion Mobility Spectrometry(TIMS)-MS scan and ten PASEF ramps per acquisition cycle. The TIMS-MS survey scan was acquired between 100 m/z and 1,700 m/z and 1/K0 of 0.7–1.3 V s cm^−2. Precursors with one to five charges were selected, and those that reached an intensity threshold of 20,000 arbitrary units were actively excluded for 0.4 min. The quadrupole isolation width was set to 2 m/z for m/z < 700 and 3 m/z for m/z > 800, with the m/z between 700 m/z and 800 m/z being interpolated linearly. […] To perform diaPASEF, the precursor distribution in the DDA m/z-ion mobility plane was used to design an acquisition scheme for data-independent acquisition (DIA) data collection that included two windows in each 50 ms diaPASEF scan. Data were acquired using 16 of these 25 Da precursor double window scans (creating 32 windows) that covered the diagonal scan line for doubly and triply charged precursors, with singly charged precursors able to be excluded by their position in the m/z-ion mobility plane. These precursor isolation windows were defined between 400 m/z and 1,200 m/z and 1/K0 of 0.7–1.3 V s cm^−2.
(§4) DirectDIA mode includes first extracting the DIA data into a collection of MS2 spectra which are searched using Spectronaut’s Pulsar search engine. The search results are then used to generate a spectral library which is then employed for the targeted analysis of the DIA data. MS/MS spectra were searched against a Swissprot human database (January 2021). Database search criteria largely followed the default settings for directDIA including: tryptic with two missed cleavages, fixed carbomidomethylation of cysteine, and variable oxidation of methionine and acetylation of protein N-termini and precursor Q-value (FDR) cut-off of 0.01. […]

CDK13 = molecular target: T3, CDK13 (Homo sapiens, UniProt Q14004+Q16531); assay: Label-free quantitative mass spectrometry in MDA-MB-231 cells, CDK13; assay type: cell-based
T3 construct: endogenous in cells; host or cells: MDA-MB-231
Method: as §1, §2, §3, §4

CDK12–cyclin K and DDB1 = molecular target: T4, CDK12–cyclin K and DDB1 (Homo sapiens, UniProt Q16531+Q9NYV4, K965R); assay: TR-FRET ternary complex formation assay (compound titration); assay type: binding
T4 construct: His6–CDK12 (a.a. 713–1,052); full-length or beta-propeller B domain deletion (ΔBPB: a.a. 396–705 deleted) constructs of His6–DDB1ΔBPB, StrepII–Avi–DDB1, or His6–Spy–DDB1; made in house; host or cells: Trichoplusia ni High Five insect cells (baculovirus)
T4 sequence (Q9NYV4 713-1052 K965R): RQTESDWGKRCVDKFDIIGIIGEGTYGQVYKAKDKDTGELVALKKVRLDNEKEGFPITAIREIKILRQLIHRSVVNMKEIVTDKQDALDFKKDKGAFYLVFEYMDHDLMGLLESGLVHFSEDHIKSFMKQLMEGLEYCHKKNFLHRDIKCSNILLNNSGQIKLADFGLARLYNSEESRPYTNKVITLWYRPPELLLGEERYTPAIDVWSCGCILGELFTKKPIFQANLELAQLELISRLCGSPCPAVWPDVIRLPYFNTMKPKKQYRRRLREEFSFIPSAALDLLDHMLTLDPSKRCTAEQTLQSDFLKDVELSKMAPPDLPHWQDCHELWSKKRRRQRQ
T4 sequence (O75909 1-267 partner): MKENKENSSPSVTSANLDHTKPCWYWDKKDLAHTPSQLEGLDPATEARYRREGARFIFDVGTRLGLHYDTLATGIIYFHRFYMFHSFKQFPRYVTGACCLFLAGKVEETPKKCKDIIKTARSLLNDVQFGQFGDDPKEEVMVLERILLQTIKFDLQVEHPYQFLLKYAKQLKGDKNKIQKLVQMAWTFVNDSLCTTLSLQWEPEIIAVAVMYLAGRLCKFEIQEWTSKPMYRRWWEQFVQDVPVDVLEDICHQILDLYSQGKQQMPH
T4 sequence (Q16531 whole entry): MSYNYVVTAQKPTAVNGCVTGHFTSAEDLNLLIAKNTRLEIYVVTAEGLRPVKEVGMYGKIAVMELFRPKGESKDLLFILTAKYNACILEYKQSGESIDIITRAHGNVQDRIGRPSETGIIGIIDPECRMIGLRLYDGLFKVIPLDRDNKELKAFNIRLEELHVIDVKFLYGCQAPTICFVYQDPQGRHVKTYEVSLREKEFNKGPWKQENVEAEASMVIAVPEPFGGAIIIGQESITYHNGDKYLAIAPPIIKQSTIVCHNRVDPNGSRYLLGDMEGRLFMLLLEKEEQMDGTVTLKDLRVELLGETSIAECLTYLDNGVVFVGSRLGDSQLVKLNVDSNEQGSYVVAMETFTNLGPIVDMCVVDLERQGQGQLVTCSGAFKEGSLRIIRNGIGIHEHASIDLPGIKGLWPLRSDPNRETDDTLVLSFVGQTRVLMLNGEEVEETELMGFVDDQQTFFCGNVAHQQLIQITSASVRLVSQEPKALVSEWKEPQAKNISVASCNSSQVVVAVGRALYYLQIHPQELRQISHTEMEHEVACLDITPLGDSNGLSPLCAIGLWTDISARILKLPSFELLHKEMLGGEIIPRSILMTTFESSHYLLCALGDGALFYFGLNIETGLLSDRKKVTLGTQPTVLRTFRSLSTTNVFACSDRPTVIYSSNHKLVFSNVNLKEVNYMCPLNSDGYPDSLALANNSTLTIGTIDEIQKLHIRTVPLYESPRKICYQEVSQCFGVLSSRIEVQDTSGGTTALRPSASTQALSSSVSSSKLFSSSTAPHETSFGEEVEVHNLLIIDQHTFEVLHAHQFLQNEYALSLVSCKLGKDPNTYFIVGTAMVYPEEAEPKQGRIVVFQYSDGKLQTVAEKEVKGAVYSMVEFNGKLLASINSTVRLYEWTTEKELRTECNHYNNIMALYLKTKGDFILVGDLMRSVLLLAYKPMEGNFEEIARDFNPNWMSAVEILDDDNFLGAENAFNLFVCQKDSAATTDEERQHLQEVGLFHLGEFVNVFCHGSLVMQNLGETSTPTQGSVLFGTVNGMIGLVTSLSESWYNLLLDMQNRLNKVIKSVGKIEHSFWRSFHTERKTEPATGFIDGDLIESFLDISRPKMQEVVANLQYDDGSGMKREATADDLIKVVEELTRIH
How it was run: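 Read-out used a 70 μs delay to cut background fluorescence; TR-FRET signal taken as the 520 nm/490 nm emission ratio.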

[1] = label-free quantitative MS, replicate values
[2] = normalised to DMSO = 1, replicate values

CC[C@H](CO)Nc1nc(NCc2nc3cc(Cl)c(Cl)cc3[nH]2)c2ncn(C(C)C)c2n1 [DS17]
Lanthascreen signal, sheet CDK2 (CDK2–cyclin A; Compound 0.038147 nM): 0.01335 and 0.01346 | Lanthascreen signal, sheet CDK2 (CDK2–cyclin A; Compound 0.152588 nM): 0.01372 and 0.01373 | Lanthascreen signal, sheet CDK2 (CDK2–cyclin A; Compound 0.610352 nM): 0.01335 and 0.01333 | Lanthascreen signal, sheet CDK2 (CDK2–cyclin A; Compound 9.76563 nM): 0.01387 and 0.01379 | Lanthascreen signal, sheet CDK2 (CDK2–cyclin A; Compound 39.0625 nM): 0.01306 and 0.01354 | Lanthascreen signal, sheet CDK2 (CDK2–cyclin A; Compound 156.25 nM): 0.01303 and 0.01259 | Lanthascreen signal, sheet CDK2 (CDK2–cyclin A; Compound 625 nM): 0.01178 and 0.01167 | Lanthascreen signal, sheet CDK2 (CDK2–cyclin A; Compound 2500 nM): 0.01002 and 0.01073 | Lanthascreen signal, sheet CDK2 (CDK2–cyclin A; Compound 10000 nM): 0.0065 and 0.006945 | IC50 (CDK2–cyclin A; Supplementary Table 2, read-out: Lanthascreen IC50 [nM] CDK2): 10300 nM | CDK12 peptide count (CDK12; [1]): 546.795 and 667.348 | CDK12 peptide count (DMSO-normalised) (CDK12; [2]): 0.6075 and 0.6893 | CDK13 peptide count (CDK13; [1]): 156.014 and 130.628 | CDK13 peptide count (DMSO-normalised) (CDK13; [2]): 0.2321 and 0.2007 | TR-FRET signal at compound concentration 0.468 nM (CDK12–cyclin K and DDB1; compound concentration 0.468 nM, raw replicate titration data): 0.2691 and 0.2681 and 0.2563 and 0.2452 | TR-FRET signal at compound concentration 2.16 nM (CDK12–cyclin K and DDB1; compound concentration 2.16 nM, raw replicate titration data): 0.3644 and 0.3794 and 0.3582 and 0.3855 | TR-FRET signal at compound concentration 3.6 nM (CDK12–cyclin K and DDB1; compound concentration 3.6 nM, raw replicate titration data): 0.5749 and 0.6382 and 0.6238 and 0.6481 | TR-FRET signal at compound concentration 7.92001 nM (CDK12–cyclin K and DDB1; compound concentration 7.92001 nM, raw replicate titration data): 1.103 and 1.253 and 1.275 and 1.336 | TR-FRET signal at compound concentration 15.84 nM (CDK12–cyclin K and DDB1; compound concentration 15.84 nM, raw replicate titration data): 2.342 and 2.592 and 2.673 and 2.949 | TR-FRET signal at compound concentration 30.96 nM (CDK12–cyclin K and DDB1; compound concentration 30.96 nM, raw replicate titration data): 3.985 and 4.064 and 4.264 and 4.269 | TR-FRET signal at compound concentration 62.6401 nM (CDK12–cyclin K and DDB1; compound concentration 62.6401 nM, raw replicate titration data): 4.135 and 4.141 and 4.254 and 4.343 | TR-FRET signal at compound concentration 125.28 nM (CDK12–cyclin K and DDB1; compound concentration 125.28 nM, raw replicate titration data): 4.238 and 4.311 and 4.291 and 4.347 | TR-FRET signal at compound concentration 244.8 nM (CDK12–cyclin K and DDB1; compound concentration 244.8 nM, raw replicate titration data): 4.1978 and 4.255 and 4.25 and 4.345 | TR-FRET signal at compound concentration 993.601 nM (CDK12–cyclin K and DDB1; compound concentration 993.601 nM, raw replicate titration data): 4.229 and 4.264 and 4.321 and 4.299 | TR-FRET signal at compound concentration 2001.6 nM (CDK12–cyclin K and DDB1; compound concentration 2001.6 nM, raw replicate titration data): 4.223 and 4.116 and 4.3288 and 4.427 | EC50 (CDK12–cyclin K and DDB1; in vitro complex formation, 50 nM CDK12–cyclin K, 100 nM DDB1, text and figures, read-out: TR-FRET EC50): 13 ± 0.3 nM | EC50 (CDK12–cyclin K and DDB1; sheet MOESM7, read-out: log TR-FRET EC50 (converted)): 13.2 nM | EC50 (CDK12–cyclin K and DDB1; source data sheet correlations, read-out: TR-FRET EC50): 13.2 nM
